Reference: a melting point compilation (Tetko et al.; mined from patent text by program, amines drawn as free bases though some values may be those of a salt)

SMILES | melting point [°C]
COc1cc(CBr)cc2c(Br)ccc(OC(C)C)c12 | 126
CCN(CC)CCOCCC1CCN(C(=O)N2c3cc(Cl)ccc3C(=O)Nc3cccnc32)CC1 | 145 to 146
CCCCCCCCCCCCCCCCCCNC(=O)OCC(CNS(=O)(=O)CCCCl)COC (stereo unspecified) | 72 to 73
CC(=O)SCCN(CCC1CCCCC1)C(=O)N[C@@H](C)C(=O)O | 89.5 to 90.5
COc1ccccc1CN[C@H]1CCCN(CCO)[C@H]1c1ccccc1 (relative stereo) | 148 to 149
COC(=O)C(C)(C)OCC#Cc1cc(Cl)ccc1NS(=O)(=O)c1ccc(C(C)C)cc1 | 65 to 67
CCOC(=O)C(CC(=O)c1ccccc1C(F)(F)F)(NC(C)=O)C(=O)OCC | 104 to 105
CCS(=O)(=O)c1ccc(Oc2cc(Cl)c(Cl)cc2Cl)nc1 | 120 to 122
CCc1nc2cnc3cc(Br)cnc3c2n1CC(C)(C)O | 207 to 208
CN1CCC(c2nn(-c3cccc(C(F)(F)F)c3)c3ccccc23)CC1 | 103 to 105
CCOC(=O)C(CCCCCc1ccc(Cl)cc1)NS(C)(=O)=O (stereo unspecified) | 60 to 62
COc1cc(OC)c2cc(-c3ccc(OC)nc3OC)oc2c1 | 155 to 156
COC(=O)c1c(Br)ccc2nn(C)cc12 | 103 to 104
C=CCC(CC1CC2CCN1CC2)(c1ccccc1)c1ccccc1 (stereo unspecified) | 95.5 to 98
Cc1ccc(C)c(P(=O)(C(=O)c2c(Cl)cccc2Cl)C(=O)c2c(Cl)cccc2Cl)c1 | 172
CN1Cc2c(N)ncn2-c2ccccc2C1=O | 202 to 204
CC(C)(C)[Si](C)(C)O[C@@H]1CO[C@H](c2cccnc2)[C@@H]1CCC(=O)O | 93 to 94

SMILES | melting point [°C]
CCOC(=O)CC(O)CCCCCNC(=O)OCc1ccccc1 (stereo unspecified) | 47 to 50
CCCCCCCCCCC[C@@H](O)CC(=O)OC | 42 to 43
COC1=C(OC)C(=O)C(CCCCCCCCCC(=O)O)=C(C)C1=O | 59 to 60
NC(=O)C(N)c1ccc(Cl)cc1Cl (stereo unspecified) | 114
O=C1C=C(NC(=O)C(=O)c2cn(Cc3ccc(Cl)cc3)c3cccc(NC(=O)c4ccc(Cl)cc4)c23)CO1 | > 300
NC1=NS(=O)N=C1NCCCN(Cc1ccccn1)c1ccccn1 (stereo unspecified) | 192 to 193
CCNC(C)Cc1ccc(O)cn1 (stereo unspecified) | 75 to 79
FC(F)(F)c1nc(Cl)c2ccccc2n1 | 62 to 63.5
CCCCCc1ccc(C(O)(c2c(C)cc(C)c(C)c2OC)C(C)C)cc1 (stereo unspecified) | 55
COc1ccc2c(c1)CN(CCc1ccc([N+](=O)[O-])cc1)CC2 | 92 to 94
Cc1nc2cccc(Cl)c2c(=O)o1 | 149
CCS(=O)(=O)N=CNCc1nc(-c2csc(N=C(N)N)n2)cs1 | 216 to 217
Cc1ncc(C(O)=S)cc1OC(C)C | 154 to 155
O=C1Cc2c(ccc3c(CCC4CCN(Cc5ccccc5)CC4)noc23)N1 | 188 to 189
CCCCCCCCOCC(CO)(CO)COCCCCCCCC | 30 to 32
CCC1(Br)Cc2cc(OCC(=O)O)c(C)c(C)c2C1=O (stereo unspecified) | 136 to 139
CCC(=O)NCCCSc1ccc(Cl)cc1 | 69 to 70

Other lines, results leading:

melting point [°C] | SMILES
173 to 174 | CCN1CCN(c2cccc3ccc(NC(=O)c4ccc(Cl)cc4)cc23)CC1
186 to 187 | N/C(=C1/Sc2ccccc2C1=O)c1ccccc1N
115 to 119 | COc1ccc(C2(C)Cc3cc(OCc4ccccc4)c(Cl)c(Cl)c3C2=O)cc1 (stereo unspecified)
> 300 | O=C(Nc1cccc(-c2ccnc3c(C(=O)c4cccs4)cnn23)c1)c1cccc(Br)c1
187 to 189 | CC(C)CC(S)C(=O)NC1(C(=O)NC(CC2(c3cccc4ccccc34)C=CC(c3ccccc3)=CC2)C(=O)O)CCCC1 (stereo unspecified)
205 to 207 | O=C(/C=C/c1ccncc1)N[C@H]1c2ccccc2C[C@H]1O
180 | OC1CSC(Oc2ccc(-c3cccnc3)nc2Cl)C(O)C1O (stereo unspecified)
75.1 to 76 | COC(=O)C(C)(Cc1ccc(OCCc2nc(-c3ccccc3)oc2C)cc1)C(=O)OC
198 | O=C(NCc1ccc(Br)cc1)Nc1cccc2[nH]ccc12
130 to 132 | O=C1c2ccccc2C(=O)N1Cc1ccc(SC(F)(F)F)cc1
192 to 194 | COc1cc(CCNC(=O)c2cccnc2)ccc1O
242 to 244 | Cc1[nH]n(C2CCCC2)c2nc(-c3cccc4cccnc34)nc(=O)c1-2
147 to 148 | O=C1c2ccccc2C(=O)N1CCc1ncc(C(F)(F)F)cc1Cl
102 to 105 | O=C1N(Cn2nc3ccccc3n2)c2ccccc2C12COc1cc3c(cc12)CCO3 (stereo unspecified)
237 to 239 | C[C@H]([C@](O)(Cn1cncn1)c1ccc(F)cc1F)S(=O)(=O)N1CCN(c2ccc(-n3cnn(CC(F)(F)F)c3=O)cc2)CC1
67 to 71 | Cc1c(CBr)cccc1C(F)(F)C(F)(F)c1ccccc1
103 to 108 | Cc1ccc(-c2c(Cl)nc(C#N)n2S(=O)(=O)c2c(C)noc2C)cc1
220 to 222 | Cn1ccc(C(=O)c2ccc(O)c(Cl)c2Cl)n1
249 to 250 | CC(C)(Cc1ccccc1)C(NC(=O)COc1ccccc1)Nc1c(Nc2cccnc2)c(=O)c1=O (stereo unspecified)

melting point [°C] | SMILES
227 to 230 | CC(=O)N(C)c1ccnc2c(NC(=O)c3c(Cl)cccc3Cl)cccc12
204 to 205 | CC1=C(C(=O)Nc2ccccc2)SC2=NCCN21
291 | Cn1ncc2[nH]c3ccc(Cc4ccc(C#N)cc4)cc3c(=O)c21
132 to 133 | CCOC(=O)N1CCC(NC(=O)c2ccccc2)C12CCCCC2 (stereo unspecified)
130 to 133 | CC(C)(Oc1ccc(CCCOc2ccc(-c3ccccc3)cc2)cc1)C(=O)O
120 to 122 | COc1cccc(NC(=O)c2cccc([N+](=O)[O-])c2)c1
148 to 154 | CC(CCc1cc2cccnc2n(-c2cccc(N(C)C)c2)c1=O)c1ccncc1 (stereo unspecified)
321 to 324 | N#Cc1ccc2c(c1)S(=O)(=O)c1ccc(N)cc1C=C2
260 to 264 | COc1cc2c(cc1OCc1ccccc1)[nH]c1cc(-c3ccccc3Cl)c3c(c12)C(=O)NC3=O
125 | COc1ccc(-c2nn(CC(C)C)c(=O)cc2-c2ccc(OC)c(F)c2)cc1
183 to 184 | Cc1nnc(-c2ccc3occ(-c4ccc(S(=O)C(F)(F)F)cc4)c3c2)o1 (stereo unspecified)
173 to 175 | Cc1ccccc1NC(=O)Nc1ccc(CC(=O)NC(CC(C)C)C2=NOC(CCC(=O)O)(CCC(=O)O)C2)cc1 (stereo unspecified)
240 to 244 | Cc1c(O)c(C)c2nc(COc3ccc(CC4SC(=O)NC4=O)cc3)n(C)c2c1C (stereo unspecified)
187 to 188 | Cc1c(NC(=O)c2ccc(-c3ccccc3)cc2F)ccc2cc(CN3CCCCC3)cnc12
138 to 140 | CC(=O)Nc1ccc(Sc2cccnc2)cc1
252 to 253 | CCCOc1ncc(NC(C)=O)cc1-c1nc2c(CCC)nn(C)c2c(=O)[nH]1
96 to 98 | CCOc1cc([C@@H](CCN(O)C=O)N2C(=O)c3cccc(NC(C)=O)c3C2=O)ccc1OC
117 to 120 | COc1ccc(C)cc1NC(=O)Nc1ccc(C2=CCN(C(=O)Nc3ccc(OCCO)cc3Cl)CC2)cc1
